Reference: patent publication US9073926B2, “Heterocyclic compounds containing a pyrrolopyridine or benzimidazole core” (Boehringer Ingelheim International GmbH, priority 2009, dated 2015)

molecular target: Human RSK2 (Homo sapiens (Human), UniProt P51812); experiment: Human RSK2 Assay (Kinase Glo Plus, residual ATP); assay type: biochemical; conditions: 0.75 nM His-RSK2, 0.75 μM ATP, 1.0 μM S6 Kinase/RSK Substrate Peptide 1
Experimental: Experimental Method A: Human RSK2 Assay
Compounds are assessed for their ability to inhibit the phosphorylation of a substrate peptide by RSK2.
Human RSK2 protein, purchased from Invitrogen, is used to measure kinase activity utilizing Kinase Glo Plus (Promega) a homogeneous assay technology, which uses a luciferin-luciferase based ATP detection reagent to quantify residual ATP. The assay is performed using 0.75 nM His-RSK2, 0.75 μM ATP and 1.0 μM S6 Kinase/RSK Substrate Peptide 1 (Upstate, catalog #12-124), in assay buffer consisting of 25 mM HEPES, pH 7.5, 10 mM MgCl2, 5 mM MnCl2, 50 mM KCl, 0.2% BSA, 0.01% CHAPS, 100 μM Na3VO4, 0.5 mM DTT, and 1% DMSO. Solutions of test compounds at various concentrations are prepared by 1:3 fold serial dilution of a 1 mM solution of compound in DMSO. The DMSO solutions are further diluted with assay buffer to a final concentration of DMSO of 5%.
The assay is performed in a 384 well, white, non-binding plate (Corning, catalogue #3574). Solutions of test compounds (10 μL) are transferred to a dry assay plate, followed by addition of 20 μL kinase and 20 μL ATP+Substrate Peptide 1 described above. The kinase reaction mixture is incubated for 90 minutes at 28° C. followed by addition of 30 μL of ATP detection reagent for 15 minutes at room temperature. The relative light unit (RLU) signal is measured on a LJL Analyst (Molecular Devices) in luminescence mode using 384 aperture. The RLU signals were converted to percent of control (POC) values using the formula: POC=100*(BCTRL−Signal)/(BCTRL−PCTRL), where Signal is the test well RLU signal, BCTRL is the average of background (negative control), which consists of ATP+peptide and compound buffer, well signals on the plate, and PCTRL is the average of positive control, which consists of kinase, ATP+peptide, and compound buffer, well signals on the plate. For concentration-responsive compounds, POC as a function of test compound concentration are fitted to a 4-parameter logistic equation of the form: Y=A+(B−A)/[1+(x/C)^D], where A, B, C, and D are fitted parameters (parameter B is fixed at zero POC), and x and y are the independent and dependent variables, respectively. The IC50 (50% inhibitory concentration) is determined as the inflection point parameter, C. Experimental Method B: Human RSK2 Trans-Reporter Assay

Chain of Human RSK2 (P51812 whole entry): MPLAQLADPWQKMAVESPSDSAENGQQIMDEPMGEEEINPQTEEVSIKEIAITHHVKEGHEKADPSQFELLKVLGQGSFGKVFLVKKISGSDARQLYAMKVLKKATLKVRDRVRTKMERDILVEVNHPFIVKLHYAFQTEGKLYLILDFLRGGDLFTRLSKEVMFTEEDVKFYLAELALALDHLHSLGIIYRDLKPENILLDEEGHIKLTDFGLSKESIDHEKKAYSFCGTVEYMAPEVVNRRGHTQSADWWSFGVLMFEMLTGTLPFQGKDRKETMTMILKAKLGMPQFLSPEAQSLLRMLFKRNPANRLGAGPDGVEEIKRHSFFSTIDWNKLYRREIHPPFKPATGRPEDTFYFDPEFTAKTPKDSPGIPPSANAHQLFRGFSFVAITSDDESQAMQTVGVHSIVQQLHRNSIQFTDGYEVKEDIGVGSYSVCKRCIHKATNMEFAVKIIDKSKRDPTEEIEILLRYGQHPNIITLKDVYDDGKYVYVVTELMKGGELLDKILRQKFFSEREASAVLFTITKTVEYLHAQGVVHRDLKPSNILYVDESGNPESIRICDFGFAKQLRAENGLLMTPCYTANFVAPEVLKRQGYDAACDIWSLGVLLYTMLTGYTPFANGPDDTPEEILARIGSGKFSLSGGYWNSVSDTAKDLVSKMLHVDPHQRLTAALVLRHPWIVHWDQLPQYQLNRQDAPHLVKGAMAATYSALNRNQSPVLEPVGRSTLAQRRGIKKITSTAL

IC50	Structure (SMILES)
0.34 nM	C[C@H]1NC(=O)c2cc3ccc(C(=O)Nc4cnn(Cc5ccccc5)c4)nc3n2[C@H]1C (relative stereo) [Example 61, N-(1-benzyl-1H-pyrazol-4-yl)-cis-8,9-dimethyl-6-oxo-6,7,8,9-tetrahydropyrido[3′,2′:4,5]pyrrolo[1,2-a]pyrazine-2-carboxamide]
3 nM	C[C@@H]1NC(=O)c2cc3ccc(C(=O)Nc4cnn(Cc5ccccc5)c4)nc3n2[C@H]1C (relative stereo) [Example 62, N-(1-benzyl-1H-pyrazol-4-yl)-trans-8,9-dimethyl-6-oxo-6,7,8,9-tetrahydropyrido[3′,2′:4,5]pyrrolo[1,2-a]pyrazine-2-carboxamide]
11.6 nM	CCn1c(NC(=O)c2ccc3cc4n(c3n2)[C@@H](C)[C@@H](C)NC4=O)nc2ccccc21 (relative stereo) [Example 73, N-(1-ethyl-1H-benzimidazol-2-yl)- cis-8,9-dimethyl-6-oxo-6,7,8,9-tetrahydropyrido[3′,2′:4,5]pyrrolo[1,2-a]pyrazine-2-carboxamide]
1110 nM	CCn1c(NC(=O)c2ccc3cc4n(c3n2)[C@@H](C)[C@H](C)NC4=O)nc2ccccc21 (relative stereo) [Example 74, N-(1-ethyl-1H-benzimidazol-2-yl)- trans-8,9-dimethyl-6-oxo-6,7,8,9-tetrahydropyrido[3′,2′:4,5]pyrrolo[1,2-a]pyrazine-2-carboxamide]
29 nM	C[C@H]1NC(=O)c2cc3ccc(C(=O)Nc4nc5ccccc5n4CCCN(C)C)nc3n2[C@H]1C (relative stereo) [Example 77, N-{1-[3-(dimethylamino)propyl]-1H-benzimidazol-2-yl}-cis-8,9-dimethyl-6-oxo-6,7,8,9-tetrahydropyrido[3′,2′:4,5]pyrrolo[1,2-a]pyrazine-2-carboxamide]
205 nM	C[C@@H]1NC(=O)c2cc3ccc(C(=O)Nc4nc5ccccc5n4CCCN(C)C)nc3n2[C@H]1C (relative stereo) [Example 78, N-{1-[3-(dimethylamino)propyl]-1H-benzimidazol-2-yl}-trans-8,9-dimethyl-6-oxo-6,7,8,9-tetrahydropyrido[3′,2′:4,5]pyrrolo[1,2-a]pyrazine-2-carboxamide]
2.6 nM	Cc1cc(NC(=O)c2ccc3cc4n(c3n2)[C@@H](C)[C@@H](C)NC4=O)no1 (relative stereo) [Example 85, Cis-8,9-dimethyl-N-(5-methyl-1,2-oxazol-3-yl)-6-oxo-6,7,8,9-tetrahydropyrido[3′,2′:4,5]pyrrolo[1,2-a]pyrazine-2-carboxamide]
110 nM	Cc1cc(NC(=O)c2ccc3cc4n(c3n2)[C@@H](C)[C@H](C)NC4=O)no1 (relative stereo) [Example 86, Trans-8,9-dimethyl-N-(5-methyl-1,2-oxazol-3-yl)-6-oxo-6,7,8,9-tetrahydropyrido[3′,2′:4,5]pyrrolo[1,2-a]pyrazine-2-carboxamide]
5.1 nM	C[C@H]1NC(=O)c2cc3ccc(C(=O)Nc4cc(Cc5ccccc5)on4)nc3n2[C@H]1C (relative stereo) [Example 99, N-(5-benzyl-1,2-oxazol-3-yl)-cis-8,9-dimethyl-6-oxo-6,7,8,9-tetrahydropyrido[3′,2′:4,5]pyrrolo[1,2-a]pyrazine-2-carboxamide]
57 nM	C[C@@H]1NC(=O)c2cc3ccc(C(=O)Nc4cc(Cc5ccccc5)on4)nc3n2[C@H]1C (relative stereo) [Example 100, N-(5-benzyl-1,2-oxazol-3-yl)-trans-8,9-dimethyl-6-oxo-6,7,8,9-tetrahydropyrido[3′,2′:4,5]pyrrolo[1,2-a]pyrazine-2-carboxamide]
5600 nM	O=C(Nc1cccnc1)c1ccc2nc3n(c2c1)CCCNC3=O [Example 1, 1-oxo-N-(pyridin-3-yl)-2,3,4,5-tetrahydro-1H-[1,4]diazepino[1,2-a]benzimidazole-8-carboxamide]
35 nM	Cn1c(NC(=O)c2ccc3nc4n(c3c2)CCCNC4=O)nc2ccccc21 [Example 2, N-(1-methyl-1H-benzimidazol-2-yl)-1-oxo-2,3,4,5-tetrahydro-1H-[1,4]diazepino[1,2-a]benzimidazole-8-carboxamide]
5.5 nM	CCn1c(NC(=O)c2ccc3nc4n(c3c2)CCCNC4=O)nc2ccccc21 [Example 3, N-(1-ethyl-1H-benzimidazol-2-yl)-1-oxo-2,3,4,5-tetrahydro-1H-[1,4]diazepino[1,2-a]benzimidazole-8-carboxamide]
33 nM	CC(C)n1c(NC(=O)c2ccc3nc4n(c3c2)CCCNC4=O)nc2ccccc21 [Example 4, 1-oxo-N-[1-(propan-2-yl)-1H-benzimidazol-2-yl]-2,3,4,5-tetrahydro-1H-[1,4]diazepino[1,2-a]benzimidazole-8-carboxamide]
3200 nM	Cc1ccnc(NC(=O)c2ccc3nc4n(c3c2)CCCNC4=O)c1 [Example 5, N-(4-methylpyridin-2-yl)-1-oxo-2,3,4,5-tetrahydro-1H-[1,4]diazepino[1,2-a]benzimidazole-8-carboxamide]
44 nM	O=C(Nc1cnn(Cc2ccccc2)c1)c1ccc2nc3n(c2c1)CCCNC3=O [Example 6, N-(1-benzyl-1H-pyrazol-4-yl)-1-oxo-2,3,4,5-tetrahydro-1H-[1,4]diazepino[1,2-a]benzimidazole-8-carboxamide]
1700 nM	Cc1nc(-c2cccc(NC(=O)c3ccc4nc5n(c4c3)CCCNC5=O)c2)cs1 [Example 7, N-[3-(2-methyl-1,3-thiazol-4-yl)phenyl]-1-oxo-2,3,4,5-tetrahydro-1H-[1,4]diazepino[1,2-a]benzimidazole-8-carboxamide]
960 nM	O=C(Nc1cccc(F)c1)c1ccc2nc3n(c2c1)CCCNC3=O [Example 8, N-(3-fluorophenyl)-1-oxo-2,3,4,5-tetrahydro-1H-[1,4]diazepino[1,2-a]benzimidazole-8-carboxamide]
295 nM	NC(=O)c1ccccc1NC(=O)c1ccc2nc3n(c2c1)CCCNC3=O [Example 9, N-(2-carbamoylphenyl)-1-oxo-2,3,4,5-tetrahydro-1H-[1,4]diazepino[1,2-a]benzimidazole-8-carboxamide]
69 nM	Cn1cc(NC(=O)c2ccc3nc4n(c3c2)CCCNC4=O)nc1C(=O)NC1CCCC1 [Example 10, N-[2-(cyclopentylcarbamoyl)-1-methyl-1H-imidazol-4-yl]-1-oxo-2,3,4,5-tetrahydro-1H-[1,4]diazepino[1,2-a]benzimidazole-8-carboxamide]
870 nM	CC(C)n1ncc2cc(NC(=O)c3ccc4nc5n(c4c3)CCCNC5=O)cnc21 [Example 11, 1-oxo-N-[1-(propan-2-yl)-1H-pyrazolo[3,4-b]pyridin-5-yl]-2,3,4,5-tetrahydro-1H-[1,4]diazepino[1,2-a]benzimidazole-8-carboxamide]
1200 nM	O=C(Nc1cnc2ccccc2c1)c1ccc2nc3n(c2c1)CCCNC3=O [Example 12, 1-oxo-N-(quinolin-3-yl)-2,3,4,5-tetrahydro-1H-[1,4]diazepino[1,2-a]benzimidazole-8-carboxamide]
320 nM	Cn1cc(NC(=O)c2ccc3nc4n(c3c2)CCCNC4=O)cn1 [Example 13, N-(1-methyl-1H-pyrazol-4-yl)-1-oxo-2,3,4,5-tetrahydro-1H-[1,4]diazepino[1,2-a]benzimidazole-8-carboxamide]
